From patent publication US12201618B2 (Biohaven Therapeutics Ltd., priority 2018, dated 2025)

Experiments:
[1] = taken with meals; cited from earlier work
[2] = tested on: patients diagnosed with Alzheimer's disease of mild-to-moderate severity; test: T2 Protect AD Phase 2/3 trial: ADAS-Cog 11; type: in vivo, human; settings: for ADAS-Cog Total Score Week 48 Model Estimates LSMean (SE): Week 48, change from baseline; for ADAS-Cog Total Score Week 48 Model Estimates LSMean (SE) Difference: Week 48, placebo vs troriluzole
Text: (§1) The ADAS-Cog 11 evaluates memory (word recall, word recognition), reasoning (following commands), language (naming, comprehension), orientation, ideational praxis (placing a letter in an envelope) and constructional praxis (copying geometric designs). Ratings of spoken language, language comprehension, word finding difficulty, and ability to remember test instructions are also obtained. The test is scored in terms of errors, with higher scores reflecting poorer performance and greater impairment. Scores can range from 0 (best) to 70 (worse).
The primary efficacy endpoint is the within-participant change in ADAS-Cog 11 from baseline to week 48, compared between the treatment group and the placebo group.
as §1, with “11 (Rosen, Mohs, & Davis, 1984) is a structured scale that” for “11”
(§2) The T2 Protect AD trial has been conducted, which is a Phase 2/3, randomized, double-blind, placebo-controlled study evaluating the efficacy and safety of troriluzole in patients diagnosed with Alzheimer's disease of mild-to-moderate severity (Mini-Mental State Examination [MMSE] scores of 14-24; mild: 20-24, moderate: 14-19).

[3] = tested on: patients diagnosed with Alzheimer's disease of mild-to-moderate severity; test: T2 Protect AD Phase 2/3 trial: volumetric hippocampal MRI; type: in vivo, human; settings: for Hippocampal Volume Change Week 48 Model Estimates LSMean (SE) Difference: Week 48, placebo vs troriluzole
Text: vMRI allows the in vivo assessment of brain structure volume and provides a measure of atrophy rate. […] Atrophy of the medial temporal lobe, including hippocampus and entorhinal cortex, has long been described in vMRI studies of AD. Hippocampal volume derived from MRI correlates with histological hippocampal volume and degree of neuronal loss and AD pathology, and entorhinal cortical thickness change appears to be an early and sensitive indicator of neurodegeneration associated with AD (Holland et al., 2009; Jack et al., 2004).
Participants will undergo vMRI scans of the brain at screening, week 24 and week 48 in order to assess for changes in brain volumes that may be associated with clinical change due to treatment with BHV-4157.
Volumetric MRI scans will use the same imaging protocol, which will include a localizer scan, a 3D T1weighted sagittal acquisition (MPRAGE or IR-SPGR), a T2-weighted FLAIR axial acquisition, a T2* gradient recalled echo axial acquisition for magnetic susceptibility, and a diffusion weighted axial acquisition to assess for restricted diffusion.
Images will be checked for image quality and adherence to scanning protocols. 3D T1-weighted datasets passing quality checks will be corrected for spatial distortion and for intensity variation. Screening and follow-up datasets for each participant will be spatially registered to one another using rigid-body registration followed by nonlinear registration and neuroanatomic parcellation to quantify whole-brain and subregional volumetric change on a patient-by patient basis.
Whole brain volume (WBV, excluding cerebellum), bilateral ventricular volume and bilateral hippocampal volume will be measured. Quantitative anatomical regional change (Quarc) will be used as the computational MR image processing application. Detail for the statistical computations is given in the Statistical Analytical Plan (SAP).
as §2

[4] = tested on: patients diagnosed with Alzheimer's disease of mild-to-moderate severity; test: T2 Protect AD Phase 2/3 trial: CDR-Sum of Boxes; type: in vivo, human; settings: for CDR01-Sum of Boxes Week 48 Model Estimates LSMean (SE): Week 48, change from baseline; for CDR01-Sum of Boxes Week 48 Model Estimates LSMean (SE) Difference: Week 48, placebo vs troriluzole
Text: The CDR-SOB (Hughes, Berg, Danziger, Coben, & Martin, 1982) is a validated composite rating of cognition and everyday functioning used in longitudinal AD research which incorporates both informant input and direct assessment of performance. It assesses through semi structured interview 3 cognitive domains including memory, orientation, and judgement/problem solving and 3 everyday functional domains including community affairs, home and hobbies and personal care. There are 5 levels of impairment from none CDR=0 to severe CDR=3. The individual domain scores are added to create a sum of the box scores.
as §2

[5] = tested on: patients diagnosed with Alzheimer's disease of mild-to-moderate severity; test: T2 Protect AD Phase 2/3 trial: neuropsychiatric inventory (NPI); type: in vivo, human; settings: after 48 weeks
Text: The NPI is a well-validated, reliable, multi-item instrument to assess psychopathology in AD dementia based on the results of an interview with the study partner (Cummings, 1997). The NPI evaluates both the frequency and severity of 10 neuropsychiatric features, including delusions, hallucinations, agitation/aggression, dysphoria, anxiety, euphoria, apathy, disinhibition, irritability and lability, and aberrant motor behavior, as well as evaluates sleep and appetite/eating disorders. Frequency assessments range from 1 (occasionally, less than once per week) to 4 (very frequently, once or more per day or continuously). Severity assessments range from 1 (mild) to 3 (severe). The score for each subscale is the product of severity and frequency and the total score is the sum of all subscales.
as §2

[6] = mild-to-moderate AD, all patients, Week 48
[7] = mild-to-moderate AD, all patients

## Nc1nc2ccc(OC(F)(F)F)cc2s1 [Riluzole, 6-(trifluoromethoxy)benzothiazol-2-amine]
[1]
  food effect on exposure: reduced exposure when taken with meals

## CN(CC(=O)Nc1nc2ccc(OC(F)(F)F)cc2s1)C(=O)CNC(=O)CN [Troriluzole]
[2]; Mild AD Patients Only, Week 48
  ADAS-Cog Total Score Week 48 Analysis Value Mean (SD): 26.2 (8.22)
  ADAS-Cog Total Score Week 48 Analysis Value Median: 26.0
  ADAS-Cog Total Score Week 48 Change from Baseline Mean (SD): 3.9 (5.90)
  ADAS-Cog Total Score Week 48 Change from Baseline Median: 4.0
[2]; Mild AD Patients Only
  ADAS-Cog Total Score Week 48 Model Estimates LSMean (SE): 4.2 (0.76)
  ADAS-Cog Total Score Week 48 Model Estimates LSMean (SE) Difference: 0.7 (1.02)
[2]; mild AD, after 48 weeks, 95% CI: −1.4, 2.7, p-value=0.5233
  ADAS-Cog11 score LS mean change difference versus placebo: 0.7
[2]; mild AD, after 48 weeks, n=65
  LS mean change from baseline on the ADAS-Cog11 score: 4.2 points
[2]; [6]
  ADAS-Cog Total Score Week 48 Analysis Value Median: 30.0
  ADAS-Cog Total Score Week 48 Change from Baseline Mean (SD): 5.8 (7.40)
  ADAS-Cog Total Score Week 48 Change from Baseline Median: 6.0
[2]; mild-to-moderate AD, all patients, Week 48, 280 mg once daily
  ADAS-Cog Total Score Week 48 Analysis Value Mean (SD): 31.5 (10.82)
[2]; [7]
  ADAS-Cog Total Score Week 48 Model Estimates LSMean (SE): 6.7 (0.70)
  ADAS-Cog Total Score Week 48 Model Estimates LSMean (SE) Difference: 0.0 (0.93)
[3]; Mild AD Patients Only
  Hippocampal Volume Change Week 48 Analysis Value Mean (SD): −1.1 (1.61)
  Hippocampal Volume Change Week 48 Analysis Value Median: −0.9
  Hippocampal Volume Change Week 48 Model Estimates LSMean (SE): −1.1 (0.27)
  Hippocampal Volume Change Week 48 Model Estimates LSMean (SE) Difference: −0.5 (0.38)
[3]; mild AD, after 48 weeks, 95% CI: −1.2, 0.3, p-value=0.2240
  hippocampal volume LS mean percent deformation change difference versus placebo: −0.5%
[3]; mild AD, after 48 weeks, n=48
  LS mean percent deformation change from baseline hippocampal volume: −1.1%
[3]; [7]
  Hippocampal Volume Change Week 48 Analysis Value Mean (SD): −1.1 (1.50)
  Hippocampal Volume Change Week 48 Analysis Value Median: −0.9
  Hippocampal Volume Change Week 48 Model Estimates LSMean (SE): −1.1 (0.18)
  Hippocampal Volume Change Week 48 Model Estimates LSMean (SE) Difference: 0.0 (0.26)
[4]; Mild AD Patients Only
  CDR01-Sum of Boxes Week 48 Analysis Value Mean (SD): 7.1 (2.79)
  CDR01-Sum of Boxes Week 48 Analysis Value Median: 6.5
  CDR01-Sum of Boxes Week 48 Change from Baseline Mean (SD): 1.4 (2.06)
  CDR01-Sum of Boxes Week 48 Change from Baseline Median: 1.0
  CDR01-Sum of Boxes Week 48 Model Estimates LSMean (SE): 1.7 (0.29)
  CDR01-Sum of Boxes Week 48 Model Estimates LSMean (SE) Difference: −0.3 (0.40)
[4]; [7]
  CDR01-Sum of Boxes Week 48 Analysis Value Mean (SD): 8.3 (3.24)
  CDR01-Sum of Boxes Week 48 Analysis Value Median: 8.0
  CDR01-Sum of Boxes Week 48 Change from Baseline Mean (SD): 1.9 (2.37)
  CDR01-Sum of Boxes Week 48 Change from Baseline Median: 2.0
  CDR01-Sum of Boxes Week 48 Model Estimates LSMean (SE): 2.1 (0.21)
  CDR01-Sum of Boxes Week 48 Model Estimates LSMean (SE) Difference: −0.2 (0.28)
[5]; mild AD, 95% CI: −5.99, 1.78, p-value=0.286
  NPI score LS mean change difference versus placebo: −2.1
[5]; mild AD, n=62
  LS mean change from baseline on the NPI score: 2.1 points
[5]; mild-to-moderate AD, 95% CI: −4.08, 1.10, p-value=0.258
  NPI score LS mean change difference versus placebo: −1.5
[5]; mild-to-moderate AD, n=120
  LS mean change from baseline on the NPI score: 2.3 points
